# Results from ChEMBL document CHEMBL6083255, “Synthesis and biological evaluation of novel isobenzofuran-1(3H)-one derivatives as antidepressant agents” (2024).
# Calls of active or inactive are those of the source. The calls are words filed in the database; no cut-off is given here.
# Legend:
# RBL-2H3 [1] = experiment: Cytotoxicity against Wistar rat RBL-2H3 cells assessed as cell viability at 1 uM incubated for 24 hrs by MTT assay; format: functional; details: read-out: Activity
# RBL-2H3 [2] = experiment: Cytotoxicity against Wistar rat RBL-2H3 cells assessed as cell viability at 5 uM incubated for 24 hrs by MTT assay; format: functional; details: read-out: Activity
# RBL-2H3 [3] = experiment: Cytotoxicity against Wistar rat RBL-2H3 cells assessed as cell viability at 25 uM incubated for 24 hrs by MTT assay; format: functional; details: read-out: Activity
# RBL-2H3 [4] = experiment: Cytotoxicity against Wistar rat RBL-2H3 cells assessed as cell viability at 125 uM incubated for 24 hrs by MTT assay; format: functional; details: read-out: Activity
# [5] = biological target: Sodium-dependent serotonin transporter (Rattus norvegicus) (UniProt P31652); experiment: Inhibition of SERT in Wistar rat RBL-2H3 cells assessed as decrease in fluorescence intensity at 10 uM preincubated for 2 hrs followed by APP+ addition and measured after 1 hr by fluorescence based assay; format: cell-based; details: time 3.0 hrs
# CHO-K1 [6] = experiment: Agonist activity at mu opioid receptor in CHO-K1 cells assessed as increase in intracellular fluorescence intensity at 50 uM incubated for 90 sec by microplate reader assay; format: cell-based; details: Cricetulus griseus
# CHO-K1 [7] = experiment: Antagonist activity at mu opioid receptor in CHO-K1 cells assessed as intracellular fluorescence intensity at 50 uM incubated for 2 mins by microplate reader assay; format: cell-based; details: Cricetulus griseus
# CHO-K1 [8] = experiment: Agonist activity at CCK-B receptor in CHO-K1 cells incubated for 90 sec by microplate reader assay; format: cell-based; details: Cricetulus griseus
# CHO-K1 [9] = experiment: Antagonist activity at CCK-B receptor in CHO-K1 cells at 50 uM incubated for 90 sec by microplate reader assay; format: cell-based; details: Cricetulus griseus
# Mus musculus [10] = experiment: Antidepressant activity in C57BL/6J mouse assessed as reduction in CRS induced body weight loss at 10 mg/kg, po administered as prophylactic dose and measured upto 28 days; format: functional, organism-based; details: time <= 28.0 day
# Mus musculus [11] = experiment: Antidepressant activity in C57BL/6J mouse assessed as reduction in CRS induced body weight loss at 10 to 50 mg/kg, po pretreated with CRS for 14 days followed by compound addition on day 15 and measured upto 28 days; format: functional, organism-based; details: dose 10-50 mg/kg, time <= 28.0 day
# Mus musculus [12] = experiment: Antidepressant activity in chronic restraint stress induced C57BL/6J mouse model assessed as increase the time in center zone at 10 mg/kg, po administered as prophylactic dose and measured on day 29 by open field test; format: functional, organism-based; details: time 29.0 day
# Mus musculus [13] = experiment: Antidepressant activity in chronic restraint stress induced C57BL/6J mouse model assessed as increase the time in center zone at 10 to 50 mg/kg, po pretreated with CRS for 14 days followed by compound addition on day 15 and measured after 29 days by open field test; format: functional, organism-based; details: dose 10-50 mg/kg, time 29.0 day
# Mus musculus [14] = experiment: Antidepressant activity in chronic restraint stress induced C57BL/6J mouse model assessed as increase in total distance in center zone at 10 mg/kg, po administered as prophylactic dose and measured on day 29 by open field test; format: functional, organism-based; details: time 29.0 day
# Mus musculus [15] = experiment: Antidepressant activity in chronic restraint stress induced C57BL/6J mouse model assessed as increase in total distance in center zone at 10 to 50 mg/kg, po pretreated with CRS for 14 days followed by compound addition on day 15 and measured after 29 days by open field test; format: functional, organism-based; details: dose 10-50 mg/kg, time 29.0 day
# Mus musculus [16] = experiment: Antidepressant activity in chronic restraint stress induced C57BL/6J mouse model assessed as increase in latency entries into center zone at 10 mg/kg, po administered as prophylactic dose and measured on day 29 by open field test; format: functional, organism-based; details: time 29.0 day
# Mus musculus [17] = experiment: Antidepressant activity in chronic restraint stress induced C57BL/6J mouse model assessed as increase in latency entries into center zone at 10 to 50 mg/kg, po pretreated with CRS for 14 days followed by compound addition on day 15 and measured after 29 days by open field test; format: functional, organism-based; details: dose 10-50 mg/kg, time 29.0 day
# Mus musculus [18] = experiment: Antidepressant activity in chronic restraint stress induced C57BL/6J mouse model assessed as reduction in immobility time at 10 mg/kg, po administered as prophylactic dose and measured on day 30 by force swimming test; format: functional, organism-based; details: time 30.0 day
# Mus musculus [19] = experiment: Antidepressant activity in chronic restraint stress induced C57BL/6J mouse model assessed as reduction in immobility time at 10 to 50 mg/kg, po pretreated with CRS for 14 days followed by compound addition on day 15 and measured after 30 days by force swimming test; format: functional, organism-based; details: dose 10-50 mg/kg, time 30.0 day
# Mus musculus [20] = experiment: Antidepressant activity in chronic restraint stress induced C57BL/6J mouse model assessed as increase in time in open arm at 10 mg/kg, po administered as prophylactic dose and measured on day 31 by elevated plus maze test; format: functional, organism-based; details: time 31.0 day
# Mus musculus [21] = experiment: Antidepressant activity in chronic restraint stress induced C57BL/6J mouse model assessed as increase in time in open arm at 10 to 50 mg/kg, po pretreated with CRS for 14 days followed by compound addition on day 15 and measured after 31 days by elevated plus maze test; format: functional, organism-based; details: dose 10-50 mg/kg, time 31.0 day
# Mus musculus [22] = experiment: Antidepressant activity in chronic restraint stress induced C57BL/6J mouse model assessed as increase in distance in open arm at 10 mg/kg, po administered as prophylactic dose and measured on day 31 by elevated plus maze test; format: functional, organism-based; details: time 31.0 day
# Mus musculus [23] = experiment: Antidepressant activity in chronic restraint stress induced C57BL/6J mouse model assessed as increase in distance in open arm at 10 to 50 mg/kg, po pretreated with CRS for 14 days followed by compound addition on day 15 and measured after 31 days by elevated plus maze test; format: functional, organism-based; details: dose 10-50 mg/kg, time 31.0 day
# Mus musculus [24] = experiment: Antidepressant activity in chronic restraint stress induced C57BL/6J mouse model assessed as increase in entries in open arm at 10 mg/kg, po administered as prophylactic dose and measured on day 31 by elevated plus maze test; format: functional, organism-based; details: time 31.0 day
# Mus musculus [25] = experiment: Antidepressant activity in chronic restraint stress induced C57BL/6J mouse model assessed as increase in entries in open arm at 10 to 50 mg/kg, po pretreated with CRS for 14 days followed by compound addition on day 15 and measured after 31 days by elevated plus maze test; format: functional, organism-based; details: dose 10-50 mg/kg, time 31.0 day
# Mus musculus [26] = experiment: Antidepressant activity in chronic restraint stress induced C57BL/6J mouse model assessed as increase in 5-HT level in prefrontal cortex at 10 mg/kg, po administered as prophylactic dose by ELISA; format: functional, organism-based
# Mus musculus [27] = experiment: Antidepressant activity in chronic restraint stress induced C57BL/6J mouse model assessed as increase in 5-HT level in prefrontal cortex at 10 to 50 mg/kg, po pretreated with CRS for 14 days followed by compound addition on day 15 by ELISA; format: functional, organism-based; details: dose 10-50 mg/kg
# Mus musculus [28] = experiment: Antidepressant activity in chronic restraint stress induced C57BL/6J mouse model assessed as increase in hippocampus TPH2 protein expression at 10 mg/kg, po administered as prophylactic dose by Western blotting analysis; format: functional, organism-based
# Mus musculus [29] = experiment: Antidepressant activity in chronic restraint stress induced C57BL/6J mouse model assessed as rescue of normal neurons at 10 mg/kg, po administered as prophylactic dose by Nissl staining based optical microscopic assay; format: functional, organism-based
# Mus musculus [30] = experiment: Antidepressant activity in chronic restraint stress induced C57BL/6J mouse model assessed as rescue of normal neurons at 10 to 50 mg/kg, po pretreated with CRS for 14 days followed by compound addition on day 15 by Nissl staining based optical microscopic assay; format: functional, organism-based; details: dose 10-50 mg/kg
# Mus musculus [31] = experiment: Antidepressant activity in chronic restraint stress induced C57BL/6J mouse model assessed as increase in Bcl2/Bax level at 10 mg/kg, po administered as prophylactic dose by Western blotting assay; format: functional, organism-based
# Mus musculus [32] = experiment: Antidepressant activity in chronic restraint stress induced C57BL/6J mouse model assessed as increase in spinophilin positive cells in cortex at 10 mg/kg, po administered as prophylactic dose by immunohistochemistry assay; format: functional, organism-based
# Mus musculus [33] = experiment: Antidepressant activity in chronic restraint stress induced C57BL/6J mouse model assessed as increase in spinophilin positive cells in cortex at 10 to 50 mg/kg, po pretreated with CRS for 14 days followed by compound addition on day 15 by immunohistochemistry assay; format: functional, organism-based; details: dose 10-50 mg/kg
# Mus musculus [34] = experiment: Antidepressant activity in chronic restraint stress induced C57BL/6J mouse model assessed as increase in BDNF expression level at 10 mg/kg, po administered as prophylactic dose by Western blotting assay; format: functional, organism-based
# Mus musculus [35] = experiment: Antidepressant activity in chronic restraint stress induced C57BL/6J mouse model assessed as increase in TrkB expression level at 10 mg/kg, po administered as prophylactic dose by Western blotting assay; format: functional, organism-based
# Mus musculus [36] = experiment: Antidepressant activity in chronic restraint stress induced C57BL/6J mouse model assessed as increase in PSD-95 expression level at 10 mg/kg, po administered as prophylactic dose by Western blotting assay; format: functional, organism-based
# Sodium-dependent serotonin transporter (Rattus norvegicus), sequence (P31652 whole entry): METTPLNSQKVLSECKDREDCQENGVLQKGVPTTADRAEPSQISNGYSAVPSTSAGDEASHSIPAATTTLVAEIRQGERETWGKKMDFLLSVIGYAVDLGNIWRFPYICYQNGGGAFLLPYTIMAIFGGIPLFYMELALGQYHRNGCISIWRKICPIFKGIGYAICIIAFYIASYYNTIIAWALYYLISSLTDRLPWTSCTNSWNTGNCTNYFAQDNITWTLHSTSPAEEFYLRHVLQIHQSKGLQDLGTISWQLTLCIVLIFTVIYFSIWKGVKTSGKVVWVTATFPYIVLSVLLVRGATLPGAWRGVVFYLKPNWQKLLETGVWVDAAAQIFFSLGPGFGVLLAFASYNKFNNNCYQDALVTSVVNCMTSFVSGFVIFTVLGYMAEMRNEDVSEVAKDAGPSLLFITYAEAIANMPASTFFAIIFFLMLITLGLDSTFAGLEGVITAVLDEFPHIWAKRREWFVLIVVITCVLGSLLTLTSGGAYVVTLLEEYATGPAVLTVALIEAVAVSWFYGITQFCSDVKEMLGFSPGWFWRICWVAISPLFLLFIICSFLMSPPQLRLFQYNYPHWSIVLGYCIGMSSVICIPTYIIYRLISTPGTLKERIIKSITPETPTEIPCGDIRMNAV
compound,measurement,setting,value
CCN(CC)CC1(c2ccc(Cl)cc2)OC(=O)c2ccccc21 (stereo unspecified),viability at 1 µM,RBL-2H3 [1],105%
same,viability at 5 µM,RBL-2H3 [2],107%
same,viability at 25 µM,RBL-2H3 [3],117%
same,viability at 125 µM,RBL-2H3 [4],132%
same,Activity,[5],Active; Activity Stronger Than Fluoxetine
same,Activity,CHO-K1 [6],inactive
same,Activity,CHO-K1 [7],inactive
same,Activity,CHO-K1 [8],inactive
same,Activity,CHO-K1 [9],inactive
same,Activity,Mus musculus [10],Active
same,Activity,Mus musculus [11],Active
same,Activity,Mus musculus [12],Active
same,Activity,Mus musculus [13],Active
same,Activity,Mus musculus [14],Active
same,Activity,Mus musculus [15],Active
same,Activity,Mus musculus [16],Active
same,Activity,Mus musculus [17],Active
same,Activity,Mus musculus [18],Active
same,Activity,Mus musculus [19],Active
same,Activity,Mus musculus [20],Active
same,Activity,Mus musculus [21],Active
same,Activity,Mus musculus [22],Active
same,Activity,Mus musculus [23],Active
same,Activity,Mus musculus [24],Active
same,Activity,Mus musculus [25],Active
same,Activity,Mus musculus [26],Active
same,Activity,Mus musculus [27],Active
same,Activity,Mus musculus [28],Active
same,Activity,Mus musculus [29],Active
same,Activity,Mus musculus [30],Active
same,Activity,Mus musculus [31],Active
same,Activity,Mus musculus [32],Active
same,Activity,Mus musculus [33],Active
same,Activity,Mus musculus [34],Active
same,Activity,Mus musculus [35],Active
same,Activity,Mus musculus [36],Active
